Reference: patent publication US7064120B2, “Tricyclic pyridyl carboxamides and derivatives thereof tocolytic oxytocin receptor antagonists” (Wyeth, priority 2001, dated 2006)

Target: T1, human vasopressin V1a receptor subtype (Homo sapiens, UniProt P37288)
T1 construct: host or cells: CHO cells, stably transfected (pZeoSV vector for the Thibonnier line)
Assay: Vasopressin binding in CHO cell membranes expressing human vasopressin V1a subtype receptors ([3H]Manning ligand radioligand binding)
Conditions: 100 nM
Experimental: Vasopressin Binding in Chinese Hamster Ovary Cell Membranes Expressing Human Vasopressin V1a Subtype Receptors
The trypsin is removed by aspiration and the cells dislodged by tapping. Cell Culture medium (e.g. 30 mL for 1:30 split) is immediately added and mixed well to inactivate trypsin. 1 mL of detached cells is added to new culture flasks containing fresh cell culture medium (e.g., into 25 mL per T-150 flask), and mixed gently. The cells are incubated at 37° C. in 5% CO2. The medium is changed at 3 to 4 days interval (or as appropriate). […] All steps are done under sterile conditions.
The cells are washed twice gently with Hank's Balanced Salt solution (e.g,. use 10 mL per T-150 flask). […] The contents are transferred to centrifuge tubes (50 mL) kept in an ice bath. All subsequent steps are done at 4° C. The tubes are centrifuged at 300×g for 15 min (1380 rpm on SORVAL, Model RT6000D, using the rotor for 50 mL tubes). The supernatant is discarded and the cells suspended in homogenizing buffer(10 mM Tris-HCl containing 0.25 M sucrose and 1 mM EDTA, pH 7.4) ensuring that the volume of the buffer is about ten times the volume of the cell pellet. The cells are pooled into a centrifuge tube (50 mL) and homogenized with Polytron at setting 6 for 10 sec. The homogenate is transferred into a Potter-Elvjehm homogenizer and homogenized with 3 strokes. The homogenate is centrifuged at 1500×g for 10 min at 4° C. (3100 rpm using SORVAL, model RT6000D, using the rotor for 50 mL tubes). The pellet is discarded. The supernatant is centrifuged at 100,000×g for 60 min. at 4° C. (Beckman L8-80M ultracentrifuge; spin at 37,500 rpm with rotor type 70 Ti for 50 mL tubes; 38,000 rpm with type 80Ti for 15 mL tubes; or 35,800 rpm with rotor type 45Ti). The supernantant is discarded and the pellet suspended in 3 to 4 mL of Tris buffer (50 mM TRIS-HCl, pH 7.4). The protein content is estimated by the Bradford or Lowry method. The volume of the membrane suspension is adjusted with the membrane buffer (50 mM Tris-HCl containing 0.1% BSA and 0.1 mM PMSF) to give 3.0 mg/mL (or as appropriate) of protein. The membranes are aliquoted and stored at −70° C.
In wells of a 96-well format microtiter plate, is added 90, 110 or 130 μL (to make up a final volume of 200 μL) of assay buffer containing 50 mM of Tris-HCl (pH 7.4), BSA (heat inactivated, protease-free), […], 1 mg % aprotinin, 1 mg % leupeptin, 2 mg % 1,10-phenanthroline, 10 mg % trypsin inhibitor, and 0.1 mM PMSF. The inhibitors are added on the day of the experiment. The components are mixed at room temperature, and then kept in ice bath following adjustment of the pH to 7.4. […] 20 μL of 50% DMSO is added for Manning and other peptide ligands and the assay buffer volume is adjusted accordingly. To each well is added 50 μL of frozen membrane suspension thawed immediately prior to use and diluted in the assay buffer to the required concentration (equivalent to 25 to 50 μg of protein/well as needed). 20 μL of 8 nM [^3H]Manning ligand in the assay buffer, prepared just before use, is added, and incubated at room temperature for 60 min. shaking the plate on a mechanical shaker for the first 15 min. The incubation is stopped by rapid filtration of the plate contents followed by wash with ice-cold buffer (50 mM Tris-HCl, pH 7.4) using a cell harvester (Tomtek and Printed filtermat-B filter paper). The filter paper is thoroughly dried (7–12 min. in a microwave oven) and impregnated with MeltiLex B/H melt-on scintillation wax sheets and the radioactivity counted in a betaplate scintillation counter.
Binding data is either reported as percent inhibition at a certain concentration or if an IC50 was calculated, as a nanomolar concentration.

T1 sequence (P37288 whole entry): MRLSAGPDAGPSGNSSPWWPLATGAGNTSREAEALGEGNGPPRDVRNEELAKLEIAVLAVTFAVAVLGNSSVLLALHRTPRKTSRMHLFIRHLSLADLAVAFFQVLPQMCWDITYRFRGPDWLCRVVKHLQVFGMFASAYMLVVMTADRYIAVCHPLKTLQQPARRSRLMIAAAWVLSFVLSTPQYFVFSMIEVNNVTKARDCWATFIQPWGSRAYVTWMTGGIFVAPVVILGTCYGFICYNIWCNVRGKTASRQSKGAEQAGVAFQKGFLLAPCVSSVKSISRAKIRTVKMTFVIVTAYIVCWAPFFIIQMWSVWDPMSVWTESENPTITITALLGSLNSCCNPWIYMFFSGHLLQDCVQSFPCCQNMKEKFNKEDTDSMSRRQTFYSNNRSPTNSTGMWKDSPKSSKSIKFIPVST

| SMILES | inhibition at 0.1 µM | V1a % inhibition @ 100 nM |
| --- | --- | --- |
| COc1cccc(-c2ccc(C(=O)N3Cc4ccc(C(=O)NCc5cccnc5)n4Cc4ccccc43)cc2OC)c1 [Example 46, 10-[(2,3′-Dimethoxy-[1,1′-biphenyl]-4-yl)carbonyl]-N-(3-pyridinylmethyl)-10,11-dihydro-5H-pyrrolo[2,1-c][1,4]benzodiazepine-3-carboxamide] | 7% | – |
| COc1cc(C(=O)N2Cc3ccc(C(=O)NCc4cccnc4)n3Cc3ccccc32)ccc1-c1ccccc1C [Example 41, 10-[(2-Methoxy-2′-methyl-[1,1′-biphenyl]-4-yl)carbonyl]-N-(3-pyridinylmethyl)-10,11-dihydro-5H-pyrrolo[2,1-c][1,4]benzodiazepine-3-carboxamide] | 20% | – |
| COc1ccccc1-c1ccc(C(=O)N2Cc3ccc(C(=O)NCc4ccccn4)n3Cc3ccccc32)cc1C [Example 24, 10-[(2′-Methoxy-2-methyl-[1,1′-biphenyl]-4-yl)carbonyl]-N-(2-pyridinylmethyl)-10,11-dihydro-5H-pyrrolo[2,1-c][1,4]benzodiazepine-3-carboxamide] | 7% | – |
| COc1cccc(-c2ccc(C(=O)N3Cc4ccc(C(=O)NCc5ccncc5)n4Cc4ccccc43)cc2OC)c1 [Example 98] | – | 24% |
| COc1ccccc1-c1ccc(C(=O)N2Cc3ccc(C(=O)NCc4cccnc4)n3Cc3ccccc32)cc1OC [Example 45, 10-[(2,2′-Dimethoxy-[1,1′-biphenyl]-4-yl)carbonyl]-N-(3-pyridinylmethyl)-10,11-dihydro-5H-pyrrolo[2,1-c][1,4]benzodiazepine-3-carboxamide] | 5% | – |
| COc1cc(-c2ccccc2C)c(Cl)cc1C(=O)N1Cc2ccc(C(=O)NCc3cccnc3)n2Cc2ccccc21 [Example 42, 10-[(6-Chloro-3-methoxy-2′-methyl-[1,1′-biphenyl]-4-yl)carbonyl]-N-(3-pyridinylmethyl)-10,11-dihydro-5H-pyrrolo[2,1-c][1,4]benzodiazepine-3-carboxamide] | -11% | – |
| COc1cc(C(=O)N2Cc3ccc(C(=O)NCc4ccccn4)n3Cc3ccccc32)ccc1-c1ccccc1C [Example 28, 10-[(2-Methoxy-2′-methyl-[1,1′-biphenyl]-4-yl)carbonyl]-N-(2-pyridinylmethyl)-10,11-dihydro-5H-pyrrolo[2,1-c][1,4]benzodiazepine-3-carboxamide] | 28% | – |
| COc1ccccc1-c1ccc(C(=O)N2Cc3ccc(C(=O)NCc4cccnc4)n3Cc3ccccc32)cc1 [Example 39, 10-[(2′-Methoxy-[1,1′-biphenyl]-4-yl)carbonyl]-N-(3-pyridinylmethyl)-10,11-dihydro-5H-pyrrolo[2,1-c][1,4]benzodiazepine-3-carboxamide] | 10% | – |
| COc1cccc(-c2ccc(C(=O)N3Cc4ccc(C(=O)N(C)Cc5cccnc5)n4Cc4ccccc43)cc2OC)c1 [Example 110] | – | 49% |

Continued, in another order:

| inhibition at 0.1 µM | SMILES | V1a % inhibition @ 100 nM |
| --- | --- | --- |
| 9% | COc1ccccc1-c1ccc(C(=O)N2Cc3ccc(C(=O)NCCc4ccccn4)n3Cc3ccccc32)cc1OC [Example 58, 10-[(2,2′-Dimethoxy-[1,1′-biphenyl]-4-yl)carbonyl]-N-[2-(2-pyridinyl)ethyl]-10,11-dihydro-5H-pyrrolo[2,1-c][1,4]benzodiazepine-3-carboxamide] | – |
| 11% | O=C(c1ccc2n1Cc1ccccc1N(C(=O)c1ccc(-c3cccc4ccccc34)cc1Cl)C2)N1CCN(c2ccncc2)CC1 [Example 124, {10-[2-Chloro-4-(naphthalen-1-yl)benzoyl]-10,11-dihydro-5H-pyrrolo[2,1-c][1,4]benzodiazepin-3-yl}[4-(4-pyridinyl)-1-piperazinyl]methanone] | – |
| 1% | COc1ccccc1-c1ccc(C(=O)N2Cc3ccc(C(=O)NCCc4ccccn4)n3Cc3ccccc32)cc1C [Example 49, 10-[(2′-Methoxy-2-methyl-[1,1′-biphenyl]-4-yl)carbonyl]-N-[2-(2-pyridinyl)ethyl]-10,11-dihydro-5H-pyrrolo[2,1-c][1,4]benzodiazepine-3-carboxamide] | – |
| 15% | COc1cc(C(=O)N2Cc3ccc(C(=O)N(C)CCc4ccncc4)n3Cc3ccccc32)ccc1-n1c(C)ccc1C [Example 147, 10-[4-(2,5-Dimethyl-1H-pyrrol-1-yl)-3-methoxybenzoyl]-N-methyl-N-[2-(pyridin-4-yl)ethyl]-10,11-dihydro-5H-pyrrolo[2,1-c][1,4]benzodiazepine-3-carboxamide] | – |
| 77% | COc1ccccc1-c1ccc(C(=O)N2Cc3ccc(C(=O)N4CCN(c5ccncc5)CC4)n3Cc3ccccc32)cc1 [Example 116, {10-[(2′-Methoxy-[1,1′-biphenyl]-4-yl)carbonyl]-10,11-dihydro-5H-pyrrolo[2,1-c][1,4]benzodiazepin-3-yl}[4-(4-pyridinyl)-1-piperazinyl]methanone] | – |
| 31% | COc1cccc(-c2ccc(C(=O)N3Cc4ccc(C(=O)N(C)CCc5ccncc5)n4Cc4ccccc43)cc2C)c1 [Example 128, 10-[(3′-Methoxy-2-methyl-[1,1′-biphenyl]-4-yl)carbonyl]-N-methyl-N-[2-(4-pyridinyl)ethyl]-10,11-dihydro-5H-pyrrolo[2,1-c][1,4]benzodiazepine-3-carboxamide] | – |
| 68% | COc1cccc(-c2ccc(C(=O)N3Cc4ccc(C(=O)N(C)CCc5ccncc5)n4Cc4ccccc43)cc2OC)c1 [Example 135, 10-[(2,3′-Dimethoxy-[1,1′-biphenyl]-4-yl)carbonyl]-N-methyl-N-[2-(4-pyridinyl)ethyl]-10,11-dihydro-5H-pyrrolo[2,1-c][1,4]benzodiazepine-3-carboxamide] | – |
| 11% | Cc1ccccc1-c1ccc(C(=O)N2Cc3ccc(C(=O)NCCc4ccccn4)n3Cc3ccccc32)cc1 [Example 53, 10-[(2′-Methyl-[1,1′-biphenyl]-4-yl)carbonyl]-N-[2-(2-pyridinyl)ethyl]-10,11-dihydro-5H-pyrrolo[2,1-c][1,4]benzodiazepine-3-carboxamide] | – |
| 12% | COc1cc(-c2ccccc2C)c(Cl)cc1C(=O)N1Cc2ccc(C(=O)N(C)Cc3cccnc3)n2Cc2ccccc21 [Example 107, 10-[(6-Chloro-3-methoxy-2′-methyl-[1,1′-biphenyl]-4-yl)carbonyl]-N-methyl-N-(3-pyridinylmethyl)-10,11-dihydro-5H-pyrrolo[2,1-c][1,4]benzodiazepine-3-carboxamide] | – |
| 0% | Cc1cc(C(=O)N2Cc3ccc(C(=O)NCc4cccnc4)n3Cc3ccccc32)ccc1-c1ccccc1C(F)(F)F [Example 48, 10-{[2-Methyl-2′-trifluoromethyl-[1,1′-biphenyl]-4-yl]carbonyl}-N-(3-pyridinylmethyl)-10,11-dihydro-5H-pyrrolo[2,1-c][1,4]benzodiazepine-3-carboxamide] | – |
| 22% | COc1cccc(-c2ccc(C(=O)N3Cc4ccc(C(=O)N5CCN(c6ccncc6)CC5)n4Cc4ccccc43)cc2C)c1 [Example 115, {10-[(3′-Methoxy-2-methyl-[1,1′-biphenyl]-4-yl)carbonyl]-10,11-dihydro-5H-pyrrolo[2,1-c][1,4]benzodiazepin-3-yl}[4-(4-pyridinyl)-1-piperazinyl]methanone] | – |
| 11% | COc1cc(C(=O)N2Cc3ccc(C(=O)N4CCN(c5ccncc5)CC4)n3Cc3ccccc32)ccc1-n1c(C)ccc1C [Example 146, {10-[4-(2,5-Dimethyl-1H-pyrrol-1-yl)-3-methoxybenzoyl]-10,11-dihydro-5H-pyrrolo[2,1-c][1,4]benzodiazepin-3-yl}[4-(pyridin-4-yl)-1-piperazinyl]methanone] | – |
